The subject of data set [1] is human T-lymphoblastic cell line CEM, infected with HIV. Briefly: Intracellular and extracellular pharmacokinetic profiles of ZDV and its metabolites in hollow-fiber bioreactor dosing system (Example 2). The data set is classed as in vitro ADME. The method, then: The bioreactor includes a cartridge of polypropylene capillaries that is commercially available from Unisyn Technologies, Inc. (Hopkinton, Mass.). The cells in the bioreactor are a human T-lymphoblastic cell line CEM, infected with HIV. The volume of distribution (VD), which is total amount of fluid in the loop 201 and the central reservoir 230, is 50 ml. The fast and slow pumps are Ismatic Peristaltic Pumps commercially available from Cole-Parmer (Niles, Ill.). The dosing element is a programmable dosing pump commercially available from Medex, Inc. (Deluth, Ga.).
The fast pump is operated at a flow rate of 35 ml/min. The dilution pump 218 is operated at a flow rate of 0.5 ml/min.
The drug Zidovudine (ZDV) is infused at four different dosing regimens for a dosing period of 24 hours, i.e., 0.1 μg/ml, continuously at 0.37 μM; 100 μg every 8 hours; 150 μg every 12 hours; and 300 μg at 24 hours. The control is operated without dosing ZDV.
Samples are removed through sampling port 272. Extracellular concentrations are determined from the fluid, and intracellular concentrations are determined after harvesting and treating the cells to extract the contents.
Drug concentration time curves allow the determination of Cmax, Cmin and AUC.
Thus, the AUCs are similar for the intracellular ZDV-diphosphate and intracellular ZDV-triphosphate.

The test system of data set [2] is HIV reverse transcriptase. The note with it: active metabolite; cited from earlier work.

Here are results for three compounds from patent US6287848A, “Dosage modeling system” (Johns Hopkins University, priority 1999, dated 2001).

Read-outs that look alike come from different tables or passages of the source.

In the case of `Cc1cn([C@H]2C[C@H](N=[N+]=[N-])[C@@H](COP(=O)(O)OP(=O)(O)O)O2)c(=O)[nH]c1=O` [ZDV-diphosphate], in data set [1], the “intracellular AUCs across four dosing regimens” value is listed as “similar” and the “intracellular concentration on increasing the dose of ZDV” value is listed as “does not result in an increase”.

With `Cc1cn([C@H]2C[C@H](N=[N+]=[N-])[C@@H](COP(=O)(O)O)O2)c(=O)[nH]c1=O` [ZDV-monophosphate], the “intracellular concentration profiles across four dosing regimens” value in data set [1] (FIG. 11a-c, ZDV infused over 24 h: continuously at 0.37 μM, 100 μg every 8 hours, 150 μg every 12 hours, 300 μg at 24 hours) is “different profiles”. For the same compound, the “intracellular concentration on increasing the dose of ZDV” value in data set [1] (increasing the dose of ZDV) is “relative increase”. For the same compound, the “rate limiting step of intracellular ZDV phosphorylation” value in data set [1] (suggested by the data) is reported as “rate limiting step is the conversion of ZDV-monophosphate to ZDV-iphosphate”.

Take `Cc1cn([C@H]2C[C@H](N=[N+]=[N-])[C@@H](CO[P@](=O)(O)O[P@](=O)(O)OP(=O)(O)O)O2)c(=O)[nH]c1=O` [ZDV-triphosphate]: in data set [1], the “amount of ZDV-triphosphate resulting from all four dosing regimens” value was “same amount”, the “intracellular AUCs across four dosing regimens” value is “similar” and the “intracellular concentration on increasing the dose of ZDV” value is “does not result in an increase”. The “inhibits HIV reverse transcriptase, which results in the inhibition of HIV replication” value in data set [2] was “inhibits HIV reverse transcriptase”.
